Laboratory results from patent US20260098026A1, “M4 ACTIVATORS/MODULATORS AND USES THEREOF” (Cerevel Therapeutics, LLC, priority 2022, published 2026).

Assays:
M4 mAChR = target: T1, M4 mAChR (Homo sapiens, UniProt P08173); experiment: cAMP TR-FRET assay with forskolin, M4-overexpressing CHO-K1 cells; format: cell-based
T1 construct: expressed in transfected cells; host or cells: CHO-K1
T1 sequence (P08173 1-479): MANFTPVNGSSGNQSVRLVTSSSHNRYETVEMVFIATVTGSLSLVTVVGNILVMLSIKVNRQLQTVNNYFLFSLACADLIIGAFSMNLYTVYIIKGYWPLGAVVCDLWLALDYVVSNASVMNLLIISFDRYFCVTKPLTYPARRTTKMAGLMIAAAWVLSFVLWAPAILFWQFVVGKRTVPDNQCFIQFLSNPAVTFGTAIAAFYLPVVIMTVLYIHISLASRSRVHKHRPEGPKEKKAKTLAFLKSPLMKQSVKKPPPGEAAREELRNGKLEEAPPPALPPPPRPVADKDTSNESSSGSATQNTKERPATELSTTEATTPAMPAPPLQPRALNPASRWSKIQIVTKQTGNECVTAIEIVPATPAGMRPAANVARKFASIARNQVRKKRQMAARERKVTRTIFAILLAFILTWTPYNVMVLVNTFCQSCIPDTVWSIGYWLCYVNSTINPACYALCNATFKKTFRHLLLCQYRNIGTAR
Description: The M2 and M4 mACh receptors are Gi-coupled receptors which, upon activation, produce a decrease in cAMP. Assays were developed that measured the potency and efficacy of compounds at the M2 or M4 mAChR using M2- or M4-overexpressing CHO-K1 cell lines. Time-resolved fluorescence resonance energy transfer (TR-FRET) technology was used, where signal occurs as a result of transfer of energy if the donor molecule is in close proximity to an acceptor molecule when the molecules have bound to the molecule of interest. The cAMP detection is a competition binding assay, where cAMP produced by cells competes for binding with the labeled donor molecule to the anti-cAMP acceptor antibody. Due to the low basal levels of cAMP in the CHO-K1 cell line, forskolin was used to increase cAMP levels to enable assessment of agonist activity at the mAChR of interest.

[1] = target: T2, M3 muscarinic acetylcholine receptor (mAChR) (Homo sapiens, UniProt P20309); experiment: FLIPR calcium assay (Fluo 8), M3-overexpressing CHO-K1 cells; format: cell-based
T2 construct: expressed in transfected cells; host or cells: CHO-K1
T2 sequence (P20309 whole entry): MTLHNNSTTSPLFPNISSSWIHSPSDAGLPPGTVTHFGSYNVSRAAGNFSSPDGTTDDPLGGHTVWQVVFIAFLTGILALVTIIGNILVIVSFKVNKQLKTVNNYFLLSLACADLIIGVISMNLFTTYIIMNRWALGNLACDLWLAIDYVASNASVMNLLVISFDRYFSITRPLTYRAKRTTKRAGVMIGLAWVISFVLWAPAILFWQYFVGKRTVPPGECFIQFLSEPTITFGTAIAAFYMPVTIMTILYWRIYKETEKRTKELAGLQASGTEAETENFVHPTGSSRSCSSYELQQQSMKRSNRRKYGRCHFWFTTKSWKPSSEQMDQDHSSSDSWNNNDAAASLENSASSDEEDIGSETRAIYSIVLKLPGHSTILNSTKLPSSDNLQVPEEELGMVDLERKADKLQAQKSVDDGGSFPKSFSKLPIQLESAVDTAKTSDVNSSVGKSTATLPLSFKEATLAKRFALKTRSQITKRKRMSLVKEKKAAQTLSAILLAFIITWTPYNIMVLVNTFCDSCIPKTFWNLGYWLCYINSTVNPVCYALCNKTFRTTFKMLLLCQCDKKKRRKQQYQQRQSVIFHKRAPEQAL
Description: Stimulation of a Gq-coupled G-protein coupled receptors (GPCRs), result in an efflux of calcium from the endoplasmic reticulum to the cytoplasm (Berridge, 1993), thus rendering this assay appropriate for the assessment of M1, M3 and M5 receptors. CHO-K1 cells overexpressing the M1, M3, or M5 muscarinic acetylcholine receptor (mAChR) were dispensed at 15,000 cells per well in 30 μl volume to 384-well plates and grown overnight at 37° C. in a 5% CO2 atmosphere. Fluo-8 Solution, 10 μl per well, was added to each well and incubated for 30 minutes at 37° C. in a 5% CO2 atmosphere. Compounds diluted in Hanks' balanced salt solution (HBSS) were transferred to the cell assay plate at 10 μl per well, and then read on a FLIPR instrument. EC50 and Emax figures were calculated from the resulting data for each receptor subtype.

Structure (SMILES) | Emax (M4 mAChR; cAMP TR-FRET with forskolin) [%] | EC50 ([1]; FLIPR calcium) [µM] | Emax (M4 mAChR; cAMP assay) [%] | EC50 ([1]; FLIPR) [µM]
CCOC(=O)N1CC2(CC[C@@H](N3CCN(c4cc(Cl)cnc4C4CCOCC4)CC3)C2)C1 (single isomer, unassigned) [Compound A15] | 80 to 100 | > 10 |  | 
CCOC(=O)N1CC2(CC(N3[C@@H]4CC[C@H]3CN(c3cc(F)cnc3-c3cnccn3)C4)CS2)C1 (single isomer, unassigned) [Compound A219] |  |  | < 19 | > 10
CCOC(=O)N1CC2(CCC(N3[C@@H]4CC[C@H]3CN(c3cc(F)cnc3-c3cnccn3)C4)C2)C1 (single isomer, unassigned) [Compound A223] |  |  | 80 to 100 | > 10
CCOC(=O)N1CC2(CC[C@@H](N3CCN(c4cc(F)cnc4-c4cnccn4)CC3)C2)C1 [Compound A6, (R)-ethyl 6-(4-(5-fluoro-2-(pyrazin-2-yl)pyridin-3-yl)piperazin-1-yl)-2-azaspiro[3.4]octane-2-carboxylate] | 80 to 100 | > 10 |  | 
CCOC(=O)N1CC2(CC[C@@H](N3CCN(c4cc(F)cnc4NC4CCOCC4)CC3)C2)C1 [Compound A9, ethyl (6R)-6-[4-[5-fluoro-2-(tetrahydropyran-4-ylamino)-3-pyridyl]piperazin-1-yl]-2-azaspiro[3.4]octane-2-carboxylate] | 80 to 100 | > 10 |  | 
CCOC(=O)N1CC2(CC[C@@H](N3CCN(c4cc(F)cnc4-n4cc(C)cn4)CC3)C2)C1 [Compound A10, ethyl (6R)-6-[4-[5-fluoro-2-(4-methylpyrazol-1-yl)-3-pyridyl]piperazin-1-yl]-2-azaspiro[3.4]octane-2-carboxylate] | 80 to 100 | > 10 |  | 
CCOC(=O)N1CC2(CC[C@@H](N3CCN(c4cccnc4-c4cncc(C)c4)CC3)C2)C1 [Compound A25] | 80 to 100 | > 10 |  | 
CCOC(=O)N1CC2(CC[C@@H](N3CCN(c4cccnc4-c4cncc(F)c4)CC3)C2)C1 [Compound A26] | 80 to 100 | > 10 |  | 
CCOC(=O)N1CC2(CC[C@@H](N3CCN(c4cc(F)cnc4-c4ccc(C#N)nc4)CC3)C2)C1 [Compound A29] | 80 to 100 | > 10 |  | 
CCOC(=O)N1CC2(CC[C@@H](N3CCN(c4cc(F)cnc4-c4ccnc5[nH]ccc45)CC3)C2)C1 [Compound A30] | 80 to 100 | > 10 |  | 
CCOC(=O)N1CC2(CC[C@@H](N3CCN(c4cc(F)cnc4-c4cncc(C)c4)CC3)C2)C1 [Compound A31] | 80 to 100 | > 10 |  | 
CCOC(=O)N1CC2(CC[C@@H](N3CCN(c4cc(F)cnc4-c4cccc(O)c4)CC3)C2)C1 [Compound A32] | 80 to 100 | > 10 |  | 
CCOC(=O)N1CC2(CC[C@@H](N3CCN(c4cc(F)cnc4-c4ccc5nn(C)cc5c4)CC3)C2)C1 [Compound A33] | 80 to 100 | > 10 |  | 
CCOC(=O)N1CC2(CC[C@@H](N3CCN(c4cc(F)cnc4-c4ccc(CO)cc4)CC3)C2)C1 [Compound A34] | 80 to 100 | > 10 |  | 
CCOC(=O)N1CC2(CC[C@@H](N3CCN(c4cc(F)cnc4-c4cnccc4C)CC3)C2)C1 [Compound A35] | 80 to 100 | > 10 |  | 
CCOC(=O)N1CC2(CC[C@@H](N3CCN(c4cc(F)cnc4-c4cncc(OC)c4)CC3)C2)C1 [Compound A36] | 80 to 100 | > 10 |  | 
CCOC(=O)N1CC2(CC[C@@H](N3CCN(c4cc(F)cnc4-c4cccnc4)CC3)C2)C1 [Compound A37] | 80 to 100 | > 10 |  | 
CCOC(=O)N1CC2(CC[C@@H](N3CCN(c4cc(F)cnc4-c4cnn(CCOC)c4)CC3)C2)C1 [Compound A38] | 80 to 100 | > 10 |  | 

Structure (SMILES) | Emax (M4 mAChR; cAMP TR-FRET with forskolin) [%] | EC50 ([1]; FLIPR calcium) [µM] | Emax (M4 mAChR; cAMP assay) [%] | EC50 ([1]; FLIPR) [µM]
CCOC(=O)N1CC2(CC[C@@H](N3CCN(c4cc(F)cnc4-c4cccc(C#N)c4)CC3)C2)C1 [Compound A39] | 80 to 100 | > 10 |  | 
CCOC(=O)N1CC2(CC[C@@H](N3CCN(c4cc(F)cnc4-c4ccc(O)c(OC)c4)CC3)C2)C1 [Compound A40] | 80 to 100 | > 10 |  | 
CCOC(=O)N1CC2(CC[C@@H](N3CCN(c4cc(F)cnc4-c4cncc(C(C)(C)O)c4)CC3)C2)C1 [Compound A41] | 80 to 100 | > 10 |  | 
CCOC(=O)N1CC2(CC[C@@H](N3CCN(c4cc(F)cnc4-c4cc(F)ccc4O)CC3)C2)C1 [Compound A42] | 80 to 100 | > 10 |  | 
CCOC(=O)N1CC2(CC[C@@H](N3CCN(c4cc(F)cnc4-c4ccc(C#N)c(OC)c4)CC3)C2)C1 [Compound A43] | 80 to 100 | > 10 |  | 
CCOC(=O)N1CC2(CC[C@@H](N3CCN(c4cc(F)cnc4-c4ccc(O)c(F)c4)CC3)C2)C1 [Compound A44] | 80 to 100 | > 10 |  | 
CCOC(=O)N1CC2(CC[C@@H](N3CCN(c4cc(F)cnc4-c4ccncc4F)CC3)C2)C1 [Compound A45] | 80 to 100 | > 10 |  | 
CCOC(=O)N1CC2(CC[C@@H](N3CCN(c4cc(F)cnc4-c4cccnc4OC)CC3)C2)C1 [Compound A46] | 80 to 100 | > 10 |  | 
CCOC(=O)N1CC2(CC[C@@H](N3CCN(c4cc(F)cnc4-c4ccccc4C#N)CC3)C2)C1 [Compound A47] | 80 to 100 | > 10 |  | 
CCOC(=O)N1CC2(CC[C@@H](N3CCN(c4cc(F)cnc4-c4ccc5c(c4)OCCO5)CC3)C2)C1 [Compound A48] | 80 to 100 | > 10 |  | 
CCOC(=O)N1CC2(CC[C@@H](N3CCN(c4cc(F)cnc4-c4cc(C)cnc4OC)CC3)C2)C1 [Compound A50] | 50 to 79.9 | > 10 |  | 
CCOC(=O)N1CC2(C[C@H](N3CCN(c4cc(F)cnc4-c4cnccn4)CC3)CS2)C1 [Compound A225] |  |  |  | > 10
CCOC(=O)N1CC2(CC[C@@H](N3CCN(c4cc(F)cnc4-c4cc(F)cnc4F)CC3)C2)C1 [Compound A232] |  |  |  | > 10
CCOC(=O)N1CC2(C[C@H](N3CCN(c4cccnc4-c4nncs4)CC3)CO2)C1 [Compound A237] |  |  |  | > 10
CCOC(=O)N1CC2(CC[C@@H](N3CCN(c4cc(Cl)cnc4-c4ccnc(C)n4)CC3)C2)C1 [Compound A248] |  |  |  | > 10
CCOC(=O)N1CC2(CC[C@@H](N3CCN(c4cc(F)cnc4-c4ccnc(C)n4)CC3)C2)C1 [Compound A254] |  |  |  | > 10
CCOC(=O)N1CC2(CC[C@@H](N3CCN(c4cc(F)cnc4-c4cnn(C(C)C)n4)CC3)C2)C1 [Compound A257] |  |  |  | > 10
CCOC(=O)N1CC2(CC[C@@H](N3CCC(c4cc(F)cnc4-c4ccc(F)cn4)CC3)C2)C1 [Compound A292] |  |  |  | > 10
